Source: article PMC4685510, “A Cell Biologist’s Field Guide to Aurora Kinase Inhibitors” (Frontiers in Oncology, 2015)

What was measured:
Test in all cases: biochemical
Type in all cases: biochemical
[1] = molecular target: 363 human kinases (including Aurora A/B/C) (Homo sapiens, UniProt P37173); settings: TGFBR2; for remaining activity at 0.1 µM: 100 nM; for remaining activity at 0.1 µM / remaining activity at 0.5 µM: read-out: % Enzyme Activity (relative to DMSO controls)
From the text: (§1) However, the Aurora A/B selectivity ratios derived from our in vitro and in vivo data can be compared to prioritize inhibitors.

[2] = molecular target: T1, 363 human kinases (including Aurora A/B/C) (Homo sapiens, UniProt Q15139); settings: PKCmu/PRKD1; for remaining activity at 0.1 µM: 100 nM; for remaining activity at 0.1 µM / remaining activity at 0.5 µM: read-out: % Enzyme Activity (relative to DMSO controls)
T1 sequence (Q15139 1-912): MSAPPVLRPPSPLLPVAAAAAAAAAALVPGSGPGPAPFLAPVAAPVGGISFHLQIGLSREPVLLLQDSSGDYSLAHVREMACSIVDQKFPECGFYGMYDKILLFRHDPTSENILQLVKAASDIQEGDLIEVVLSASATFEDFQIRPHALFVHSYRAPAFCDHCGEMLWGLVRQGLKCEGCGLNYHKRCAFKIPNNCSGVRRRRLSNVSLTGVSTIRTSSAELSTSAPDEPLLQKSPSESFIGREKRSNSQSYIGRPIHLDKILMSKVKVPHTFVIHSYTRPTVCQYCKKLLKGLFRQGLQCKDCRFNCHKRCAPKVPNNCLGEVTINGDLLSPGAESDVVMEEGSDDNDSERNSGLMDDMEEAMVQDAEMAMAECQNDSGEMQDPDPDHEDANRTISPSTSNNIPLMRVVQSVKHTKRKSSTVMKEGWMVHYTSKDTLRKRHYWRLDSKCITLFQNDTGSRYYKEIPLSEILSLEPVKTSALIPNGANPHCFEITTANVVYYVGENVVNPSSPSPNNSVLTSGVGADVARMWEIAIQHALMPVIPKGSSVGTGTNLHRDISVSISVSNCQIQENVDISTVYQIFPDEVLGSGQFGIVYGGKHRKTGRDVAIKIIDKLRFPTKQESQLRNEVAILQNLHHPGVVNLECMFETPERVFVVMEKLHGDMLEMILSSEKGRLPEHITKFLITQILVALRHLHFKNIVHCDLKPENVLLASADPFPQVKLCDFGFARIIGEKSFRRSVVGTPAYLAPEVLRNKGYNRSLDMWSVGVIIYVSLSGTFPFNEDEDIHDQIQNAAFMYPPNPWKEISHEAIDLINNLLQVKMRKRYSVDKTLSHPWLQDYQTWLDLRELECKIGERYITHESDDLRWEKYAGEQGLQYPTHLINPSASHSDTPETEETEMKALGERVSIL
From the text: as §1

[3] = molecular target: 363 human kinases (including Aurora A/B/C) (Homo sapiens, UniProt Q15349); settings: RSK3; for remaining activity at 0.1 µM: 100 nM; for remaining activity at 0.1 µM / remaining activity at 0.5 µM: read-out: % Enzyme Activity (relative to DMSO controls)
From the text: as §1

[4] = molecular target: T2, 363 human kinases (including Aurora A/B/C) (Homo sapiens, UniProt Q6VAB6); settings: KSR2; for remaining activity at 0.1 µM: 100 nM; for remaining activity at 0.1 µM / remaining activity at 0.5 µM: read-out: % Enzyme Activity (relative to DMSO controls)
T2 sequence (Q6VAB6 1-950): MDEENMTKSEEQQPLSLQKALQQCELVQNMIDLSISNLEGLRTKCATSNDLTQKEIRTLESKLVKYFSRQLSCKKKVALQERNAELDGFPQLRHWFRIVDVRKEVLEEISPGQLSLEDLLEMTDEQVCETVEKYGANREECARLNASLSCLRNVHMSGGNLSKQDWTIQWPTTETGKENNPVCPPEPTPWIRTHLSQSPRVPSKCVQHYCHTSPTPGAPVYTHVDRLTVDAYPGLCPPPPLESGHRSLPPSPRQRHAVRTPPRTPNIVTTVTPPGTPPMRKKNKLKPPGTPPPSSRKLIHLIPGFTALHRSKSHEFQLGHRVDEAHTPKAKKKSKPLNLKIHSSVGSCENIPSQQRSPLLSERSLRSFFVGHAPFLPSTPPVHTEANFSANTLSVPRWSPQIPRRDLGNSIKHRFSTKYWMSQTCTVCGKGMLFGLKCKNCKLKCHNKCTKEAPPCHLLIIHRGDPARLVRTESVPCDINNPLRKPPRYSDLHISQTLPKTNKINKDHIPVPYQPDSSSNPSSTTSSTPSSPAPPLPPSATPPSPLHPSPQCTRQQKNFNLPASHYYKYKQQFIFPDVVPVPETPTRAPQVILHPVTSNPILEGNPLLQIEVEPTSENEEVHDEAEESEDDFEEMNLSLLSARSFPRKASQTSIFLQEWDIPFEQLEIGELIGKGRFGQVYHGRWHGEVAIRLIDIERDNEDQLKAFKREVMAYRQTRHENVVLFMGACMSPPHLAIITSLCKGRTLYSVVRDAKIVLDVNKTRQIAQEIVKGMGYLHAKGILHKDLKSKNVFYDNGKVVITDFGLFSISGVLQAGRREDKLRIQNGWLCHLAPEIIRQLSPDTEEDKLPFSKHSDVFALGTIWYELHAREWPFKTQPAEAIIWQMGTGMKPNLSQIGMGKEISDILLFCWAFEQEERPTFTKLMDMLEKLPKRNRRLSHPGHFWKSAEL
From the text: as §1

[5] = molecular target: T3, 363 human kinases (including Aurora A/B/C) (Homo sapiens, UniProt Q8IVH8); settings: GLK/MAP4K3; for remaining activity at 0.1 µM: 100 nM; for remaining activity at 0.1 µM / remaining activity at 0.5 µM: read-out: % Enzyme Activity (relative to DMSO controls)
T3 sequence (Q8IVH8 1-894): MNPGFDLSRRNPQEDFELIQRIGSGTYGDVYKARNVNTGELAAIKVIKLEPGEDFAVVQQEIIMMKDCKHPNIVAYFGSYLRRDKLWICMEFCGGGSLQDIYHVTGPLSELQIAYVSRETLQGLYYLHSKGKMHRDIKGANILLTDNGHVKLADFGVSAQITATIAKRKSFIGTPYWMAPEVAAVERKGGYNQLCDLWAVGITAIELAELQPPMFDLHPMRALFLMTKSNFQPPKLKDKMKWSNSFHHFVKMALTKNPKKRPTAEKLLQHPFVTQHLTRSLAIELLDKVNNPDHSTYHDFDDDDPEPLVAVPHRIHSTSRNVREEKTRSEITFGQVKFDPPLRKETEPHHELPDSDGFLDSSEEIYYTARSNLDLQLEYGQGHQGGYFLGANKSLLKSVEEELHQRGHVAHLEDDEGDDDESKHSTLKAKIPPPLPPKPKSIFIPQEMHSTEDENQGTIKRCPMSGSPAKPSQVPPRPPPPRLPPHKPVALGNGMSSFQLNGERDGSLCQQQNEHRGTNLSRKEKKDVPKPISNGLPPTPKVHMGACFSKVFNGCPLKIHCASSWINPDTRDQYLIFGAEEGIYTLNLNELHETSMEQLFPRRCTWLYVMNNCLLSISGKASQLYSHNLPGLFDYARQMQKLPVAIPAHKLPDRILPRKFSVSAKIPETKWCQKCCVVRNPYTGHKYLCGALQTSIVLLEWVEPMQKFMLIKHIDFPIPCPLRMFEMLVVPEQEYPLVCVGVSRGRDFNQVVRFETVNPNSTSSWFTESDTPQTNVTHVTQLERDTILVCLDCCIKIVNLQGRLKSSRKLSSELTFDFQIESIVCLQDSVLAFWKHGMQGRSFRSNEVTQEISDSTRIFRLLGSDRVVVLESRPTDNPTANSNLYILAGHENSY
From the text: as §1

363 human kinases (including Aurora A/B/C) (Homo sapiens, UniProt P37173), sequence (P37173 23-567): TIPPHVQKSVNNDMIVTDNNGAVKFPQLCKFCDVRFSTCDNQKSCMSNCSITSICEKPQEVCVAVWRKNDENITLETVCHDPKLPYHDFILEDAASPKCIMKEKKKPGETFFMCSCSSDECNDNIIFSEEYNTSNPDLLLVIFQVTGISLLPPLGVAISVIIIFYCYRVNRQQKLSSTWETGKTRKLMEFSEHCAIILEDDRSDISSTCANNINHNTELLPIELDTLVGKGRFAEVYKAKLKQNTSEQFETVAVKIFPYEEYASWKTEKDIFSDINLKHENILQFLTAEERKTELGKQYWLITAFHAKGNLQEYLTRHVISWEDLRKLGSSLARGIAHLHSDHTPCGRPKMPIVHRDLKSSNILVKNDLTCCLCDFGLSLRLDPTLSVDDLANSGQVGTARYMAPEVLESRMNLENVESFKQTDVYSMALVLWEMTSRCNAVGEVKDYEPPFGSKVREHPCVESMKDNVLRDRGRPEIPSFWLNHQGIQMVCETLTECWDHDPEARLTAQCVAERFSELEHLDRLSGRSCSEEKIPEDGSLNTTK
363 human kinases (including Aurora A/B/C) (Homo sapiens, UniProt Q15349), sequence (Q15349 whole entry): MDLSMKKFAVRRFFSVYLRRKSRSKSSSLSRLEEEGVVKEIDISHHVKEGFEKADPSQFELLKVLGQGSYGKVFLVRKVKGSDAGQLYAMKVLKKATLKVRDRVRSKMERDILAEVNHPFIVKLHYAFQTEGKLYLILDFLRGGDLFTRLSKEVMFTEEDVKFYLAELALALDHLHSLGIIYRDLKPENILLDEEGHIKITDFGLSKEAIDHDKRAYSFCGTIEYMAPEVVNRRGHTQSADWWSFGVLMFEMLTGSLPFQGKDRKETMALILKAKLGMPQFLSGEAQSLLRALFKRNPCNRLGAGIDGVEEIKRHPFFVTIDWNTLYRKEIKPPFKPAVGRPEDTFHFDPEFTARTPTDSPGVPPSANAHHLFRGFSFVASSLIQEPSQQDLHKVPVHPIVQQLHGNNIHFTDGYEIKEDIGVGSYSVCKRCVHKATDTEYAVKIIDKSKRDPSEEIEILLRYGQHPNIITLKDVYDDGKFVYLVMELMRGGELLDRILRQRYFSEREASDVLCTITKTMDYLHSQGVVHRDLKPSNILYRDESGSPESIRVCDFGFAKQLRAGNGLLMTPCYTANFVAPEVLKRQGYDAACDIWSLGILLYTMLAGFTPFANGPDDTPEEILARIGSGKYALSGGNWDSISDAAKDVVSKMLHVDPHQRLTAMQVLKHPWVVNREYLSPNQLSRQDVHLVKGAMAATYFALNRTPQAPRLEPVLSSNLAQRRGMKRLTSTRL

Row | Structure (SMILES) | remaining activity at 0.1 µM [1] | remaining activity at 0.1 µM [2] | remaining activity at 0.1 µM [3] | remaining activity at 0.1 µM [4] | remaining activity at 0.1 µM [5] | remaining activity at 0.5 µM ([1]; 500 nM) | remaining activity at 0.5 µM ([2]; 500 nM) | remaining activity at 0.5 µM ([3]; 500 nM) | remaining activity at 0.5 µM ([4]; 500 nM) | remaining activity at 0.5 µM ([5]; 500 nM) | % Enzyme Activity (relative to DMSO controls) ([1]; 500 nM) | % Enzyme Activity (relative to DMSO controls) ([2]; 500 nM) | % Enzyme Activity (relative to DMSO controls) ([3]; 500 nM) | % Enzyme Activity (relative to DMSO controls) ([4]; 500 nM) | % Enzyme Activity (relative to DMSO controls) ([5]; 500 nM)
1 | CCn1cc(-c2ccnc3[nH]c(-c4cccc(CN(C)C)c4)cc23)c(-c2ccc(NC(=O)N(C)C)cc2)n1 [GSK1070916] | 121% | 85.4% | 95.2% | 101% | 88.3% |  |  |  |  |  |  |  |  |  | 
2 | O=C(O)[C@]1(Cc2cccc(Nc3nccs3)n2)CC[C@@H](Oc2cccc(Cl)c2F)CC1 [MK-5108] | 92.6% | 108% | 101% | 95.6% | 103% | 86.3% | 99% | 89.7% | 94.5% | 82.7% |  |  |  |  | 
3 | O=C(c1cccc(Cl)c1F)N1CCN(Cc2cccc(Nc3nccs3)n2)CC1 [MK-8745] |  |  |  |  |  | 109% | 98.5% | 99.9% | 98.3% | 88.7% | 108.29% | 97.14% | 96.48% | 95.49% | 88.41%
